Measured values published in patent US9456589B2, “Elasmobranch-repelling compounds and methods of use” (priority 2005, dated 2016).
“And” between values parts separate entries of the source, which are not always exact repeats. Equal values may be shown once. “Also recorded” adds a separate entry of the source. Read-outs that look alike come from different tables or passages of the source.

Legend:
juvenile sharks = test: Initial tonic immobility assays, mouth delivery by micropipette or syringe; assay type: in vivo; details: introduced to the mouth using a micropipette or syringe
[1] = test system: sharks (lemon, nurse, blacknose, blacktip pooled); test: Tonic immobility, Syringe Assay, summary over species; assay type: in vivo
Protocol: (§1) One bioassay used to observe and measure flight response is the tonic immobility test. Tonic immobility is a state of paralysis that typically occurs when a shark is subject to inversion of its body along the longitudinal axis. This state is called “tonic,” and the shark can remain in this state for up to 15 minutes thereby allowing researchers to observe effects of chemical repellents. The “tonic” state of the shark is first established by releasing seawater in proximity to the “tonic” shark with the same delivery instrument and at the same distance as a “test” repellent compound will be released. Some controls are released with a high flow rate (30 mL/sec) in order to establish that sharks are not awakened by a jet of fluid over their noses. Once behavioral controls are established, a compound or composition that may have a repelling effect is delivered to the shark. If the compound or composition engenders a flight response, the shark will awaken from the tonic state and rapidly attempt to flee the delivered repellent. Using this tonic immobility bioassay researches can quantify the strength of a repellent effect.
(§2) A second delivery method called the “Syringe Assay” method delivered a dose of 60 mL or more of a test chemical repellent from at least one foot, and up to as many as five feet, from a shark. The distance of delivery was determined based on the strength of the water current in the direction of the shark. Time from delivery of the test substance until response was observed, measured and recorded. The “Syringe” method allows a researcher to observe how a diffusing and diluting cloud of test chemical repellent affects the shark's behavior when the shark encounters the delivered cloud of test substance. The “Syringe” method requires relatively large doses because of the diffusion of the cloud over time and distance. Time from delivery to response is related to the size of the bolus delivered from the syringe, distance of the shark from the syringe and water current.
(§3) In the Syringe assay about 60 mL or more of valeraldehyde was delivered from one to as many as five feet from the shark depending on the water current. […] Time from delivery to response was related to the size of the bolus delivered from the syringe, distance of the shark from the syringe and water current.

lemon sharks [2] = test: Tonic immobility, Syringe Assay; assay type: in vivo, N. brevirostris
Protocol: as §1, §2
(§4) Lemon, nurse, blacktip and tiger sharks were placed in tonic immobility by inverting the shark's body along its longitudinal axis. […] The “tonic” state of each shark was first established by releasing a control of seawater in proximity to the shark with the same delivery instrument and at the same distance as the chemical repellent would later be delivered. In certain controls, sea water was released with a high flow rate (30 mL/sec) in order to establish that the sharks would not be awakened by a jet of fluid over their noses.
(§5) Once behavioral controls were established, the chemical repellent was delivered to the shark using the Hd Syringe Assay method, the Syringe 3/5/10 Assay method, the Bite Assay method or the Micropipette Assay method. […] If tonic immobility was terminated, the positive response was denoted as “Y.” If tonic immobility was not terminated but a behavior change within tonic immobility was noted, such as the opening of the mouth or a cough, the response was denoted as an “R” for reduced response. If no behavior change was observed, the negative response was denoted “N.”
as §3

nurse sharks = test: Tonic immobility, Syringe Assay; assay type: in vivo, C. cirratum
[3] = test system: Caribbean reef sharks and blacknose sharks; test: Cage Assay on free-swimming sharks; assay type: in vivo, C. perezii, C. acronotus; details: for Cage Y (repellent activity), trials of trials: 500 mL delivered at baited cage; for number of strikes at the baited cage / return of sharks / interactions with the baited cage after 10 minutes: 500 mL of 50% w/w in diethylene glycol monoethyl ether
Excerpt: Another bioassay used to observe a flight response in sharks is a free-swimming test using a small metal cage containing bait. This assay is referred to as a “Cage Assay.” The cage with bait is suspended below a float in the water column. A ⅜ inch diptube is secured from the cage to the boat and carried chemical compounds to the proximity of the cage where the test substances were delivered. Sharks are drawn to the vicinity of the boat with chum. Sharks are observed to immediately bump and bite at the cage wherein bait was contained. The number of interactions between the sharks and the cage are recorded over time. Test chemical repelling substance is delivered to the vicinity of the cage through the diptube. The frequency of bumps and strikes by sharks against the cage is then monitored and recorded. If bumps and strikes by sharks cease for a period of time, that time period is also recorded. In the free-swim ring tests disclosed herein using a baited cage, the volume of test chemical repellent delivered into the vicinity of the cage was about 500 mL.
A series of chemical repellent tests on free-swimming Caribbean reef sharks (C. perezii) and blacknose sharks (C. acronotus) was performed in tropical waters. A small metal cage containing bait was suspended below a float in the water column. A ⅜″ ID HDPE diptube was secured from the cage to the boat, so that chemical compounds could be transported to the cage's proximity. Sharks were stimulated using bunker chum in bags.
The number of interactions was recorded using an underwater pole-camera.

[4] = test system: sharks (lemon, nurse, tiger pooled); test: Tonic immobility, Hd Syringe Assay, summary over species; assay type: in vivo; details: species pooled
Protocol: as §1
In Hd-Syringe Assays, the 3-methylbutanal was delivered to the shark's mouth and nares using a 3 mL hypodermic syringe fitted with a 22 gauge needle. The needle was held within 3 inches of the shark's mouth and the test repellent was slowly released from the syringe with a very fine plume in the water column. Any response was denoted. If a response occurred during a measurable time after delivery of the test chemical, the time between delivery and response was noted. If a response occurred immediately or the response occurred before a measurable time could be established, no time to response was noted.

lemon sharks [5] = test: Tonic immobility, Micropipette Assay; assay type: in vivo, N. brevirostris; details: for Comments (behavior observed): lemon / juvenile sharks, micropipette
Protocol: as §1
A fourth method of delivery was called the “Micropipette Assay” method of delivery. In this method, a very small dose (fraction of a mL) of a test substance was delivered directly into a shark's mouth. […] A response, such as a cough or other notable action of the shark, was usually noted when effective gustatory repellents were delivered directly into a shark's mouth while in tonic immobility.
The Micropipette Assay method has not proven to be a particularly effective method of assaying for a flight response in elasmobranchs. The Micropipette Assay method is, nevertheless, an excellent method for specifying that a gustatory response has occurred. It is effective for specifying a gustatory response because the micropipette delivery method allows direct delivery of an entire bolus of test substance into the mouth of the shark being tested.
Using a microliter syringe or microliter pipette, a bolus of test chemical can be directed precisely into one of the shark's nares, or its mouth. […] Olfactory repellents will terminate tonic immobility almost immediately when injected into a nare of the shark.
as §4, §5
Further because the Micropipette assays were often done serially on the same set of sharks, second and third doses of the repellent over time would be expected to evoke less of a reaction. Nevertheless, the small doses delivered to the shark in the Micropipette assay provide important data on whether a compound is a gustatory stimulant because the small dose may be delivered directly into the mouth of the shark. This eliminates any olfactory response that might be acting in concert with a gustatory response to terminate tonic immobility.

sharks (species pooled) = test: Tonic immobility, total of delivery methods not including Micropipette assays; assay type: in vivo; details: species and delivery methods pooled
Protocol: as §1
Table 1, which summarizes the data in Tables 14 and 15, evidences the gustatory repellent characteristics of methylbutanals. In 35 of 36 assays (combining columns “Y” and “R” under the column labeled “Total (Not including Micropipette Assays)” to arrive at a 97% effectiveness rate), including assays on lemon, nurse, tiger and blacktip sharks, the gustatory repellent activity of 3-methylbutanal was established. In 81% of assays, tonic immobility was fully terminated. […] In only a single assay did a shark not respond to treatment with 3-methylbutanal.

Q: `Cc1ccncc1` [gamma-picoline, 4-methylpyridine] was tested. Which “result of initial tonic immobility assays” value (from here on “result”) (juvenile sharks) did it give?
A: terminated tonic immobility

Q: `Cc1cccc(C)n1` [lutidine] was tested. Which “result” value (juvenile sharks) did it give?
A: terminated tonic immobility

Q: What does the source list for `CC(=O)C=C(C)C` [mesityl oxide]?
A: Syringe Y (termination of tonic immobility), trials of trials [1]: 1/1; Syringe assays terminating tonic immobility (text) (lemon sharks [2]): terminated

Q: `CCCCCCCCCC=O` [decanal] was tested. Which “Syringe assays terminating tonic immobility (text)” value (nurse sharks) did it give?
A: terminated

Q: What about the “Syringe Y (termination of tonic immobility), trials of trials” value [1] of the same compound?
A: 1/1

Q: What about the “Syringe assays terminating tonic immobility (text)” value (lemon sharks [2]) of the same compound?
A: terminated

Q: Which results are given for `CCCCCCCCC=O` [nonanal]?
A: Syringe Y (termination of tonic immobility), trials of trials [1]: 1/1; Syringe assays terminating tonic immobility (text) (lemon sharks [2]): terminated

Q: With `Cc1ccc(C=O)cc1` [Tolualdehyde, p-tolualdehyde] as the compound, how does the “Syringe Y (termination of tonic immobility), trials of trials” value [1] read?
A: 1/1

Q: What about the “Syringe assays terminating tonic immobility (text)” value (lemon sharks [2]; listed as p-tolualdehyde) of the same compound?
A: termination of tonic immobility

Q: What about the “Syringe assays terminating tonic immobility (text)” value (lemon sharks [2]; listed as tolualdehyde) of the same compound?
A: terminated

Q: For `COc1cc(CCC(C)=O)ccc1O` [Zingerone, zingerone], which “Cage Y (repellent activity), trials of trials” value (“Cage Y (repellent activity)” for short) [3] is on record?
A: 1/1

Q: What about the “number of strikes at the baited cage” value [3] of the same compound?
A: decrease in the number of strikes; also recorded: reduced

Q: What about the “return of sharks / interactions with the baited cage after 10 minutes” value (“return of sharks / interactions” below) [3] of the same compound?
A: lull in feeding for 10 minutes; also recorded: interactions continued after a 10 minute period

Q: With `Cc1cccnc1` [3-methylpyridine] as the compound, how does the “Hd-Syringe Y (termination of tonic immobility), trials of trials” value [4] read?
A: three of three and 3/3

Q: What about the “result” value (juvenile sharks) of the same compound?
A: terminated tonic immobility

Q: How did the “Syringe assays with no response” value (nurse sharks) turn out when `COc1ccc(C=O)cc1OC` [veratraldehyde] was run?
A: no response

Q: What about the “Syringe N (no response), trials of trials” value [1] of the same compound?
A: one of seven and 1/7

Q: What about the “Syringe Y (termination of tonic immobility), trials of trials” value [1] of the same compound?
A: six of seven and six of six and 6/7

Q: And the “Micropipette assays with a response” value (lemon sharks [5]; lemon sharks)?
A: eight of twelve

Q: And the “Micropipette assays with no response” value (lemon sharks [5]; lemon sharks)?
A: four

Q: Which “Comments (behavior observed)” value (lemon sharks [5]) does the source give for `Cc1cccnc1N` [2-amino-3-picoline 95%, 2-amino-3-picoline] here?
A: violent seizure; also recorded: VIOLENT/SEIZURE

Q: And the “Comments (behavior observed)” value (lemon sharks [5]; listed as aminopicoline)?
A: violent responses

Q: What about the “Micropipette assays terminating tonic immobility” value (lemon sharks [5]; lemon sharks) of the same compound?
A: one

Q: And the “Micropipette assays with a response” value (lemon sharks [5]; lemon sharks)?
A: two of two

Q: How did the “result” value (juvenile sharks) turn out when `Cc1cc(C)nc(C)c1` [collidine] was run?
A: terminated tonic immobility

Q: With `Cc1cc(=O)n(-c2ccccc2)n1C` [antipyrine solution, antipyrine] as the compound, how does the “Micropipette assays with a response” value (lemon sharks [5]; lemon sharks) read?
A: a response was observed; also recorded: evoked a response in one assay

Q: And the “Micropipette assays with no response” value (lemon sharks [5]; lemon sharks)?
A: no response; also recorded: did not evoke a response in another

Q: How did the “Cage Y (repellent activity)” value [3] turn out when `CC(=O)/C=C/C1C(C)=CCCC1(C)C` (stereo not drawn) [Ionone, alpha-ionone] was run?
A: 1/1

Q: What about the “number of strikes at the baited cage” value ([3]; listed as alpha-ionone) of the same compound?
A: reduced

Q: What about the “return of sharks / interactions” value ([3]; listed as alpha-ionone) of the same compound?
A: interactions continued after a 10 minute period

Q: And the “number of strikes at the baited cage” value ([3]; listed as ionone)?
A: decrease in the number of strikes

Q: And the “return of sharks / interactions” value ([3]; listed as ionone)?
A: lull in feeding for 10 minutes

Q: Which “Syringe Y (termination of tonic immobility), trials of trials” value [1] does the source give for `CCCCCCCC=O` [octanal] here?
A: 1/1

Q: And the “Syringe assays terminating tonic immobility (text)” value (lemon sharks [2])?
A: terminated

Q: For `CCCC=O` [Butyraldehyde, butyraldehyde], which “Syringe assays terminating tonic immobility (text)” value (nurse sharks) is on record?
A: two

Q: What about the “Syringe assays with no response” value (nurse sharks) of the same compound?
A: one

Q: What about the “Syringe Y (termination of tonic immobility), trials of trials” value [1] of the same compound?
A: 4/4

Q: What about the “Syringe Y (termination of tonic immobility), trials of trials” value ([1]; listed as butyraldehyde) of the same compound?
A: 4 of 5

Q: What about the “Total (Not including Micropipette assays / Effective Delivery Methods) Y, trials of trials” value (sharks (species pooled)) of the same compound?
A: 4/4

Q: What about the “Total Y, percent of trials” value (sharks (species pooled)) of the same compound?
A: 100%

Q: What about the “Syringe assays terminating tonic immobility (text)” value (lemon sharks [2]) of the same compound?
A: resulting in termination of tonic immobility

Q: How did the “Syringe N (no response), trials of trials” value [1] turn out when `CCCCCCC=O` [heptanal] was run?
A: no response and 1/1

Q: What about the “Syringe assays with no response” value (lemon sharks [2]) of the same compound?
A: no response

Q: Which results are given for `CC(C)c1ccc(C=O)cc1` [Cuminaldehyde, cuminaldehyde]?
A: Syringe Y (termination of tonic immobility), trials of trials [1]: 1/1; Syringe Y (termination of tonic immobility), trials of trials ([1]; listed as cuminaldehyde): terminated; Total (Not including Micropipette assays / Effective Delivery Methods) Y, trials of trials (sharks (species pooled)): 1/1; Syringe assays terminating tonic immobility (text) (lemon sharks [2]): resulted in termination of tonic immobility

Q: `O=Cc1ccc2c(c1)OCO2` [Piperonal, piperonal] was tested. Which “Total (Not including Micropipette assays / Effective Delivery Methods) Y, trials of trials” value (sharks (species pooled)) did it give?
A: 1/1

Q: What about the “Cage Y (repellent activity)” value [3] of the same compound?
A: 1/1

Q: And the “number of strikes at the baited cage” value [3]?
A: decrease in the number of strikes; also recorded: dramatically reduced

Q: And the “return of sharks / interactions” value [3]?
A: did not return; also recorded: interactions ceased

Q: For `Cc1ncccc1N` [3-amino-2-picoline], which “result” value (juvenile sharks) is on record?
A: terminated tonic immobility

Q: For `Cc1ccccn1` [alpha-picoline, 2-methylpyridine], which “result” value (juvenile sharks) is on record?
A: terminated tonic immobility
